Results published in patent US10081615B2, “Sulfamate derivative compounds for use in treating or alleviating pain” (Bio-Pharm Solutions Co., Ltd., priority 2013, dated 2018).

Columns and labels:
[1] = test system: acetic acid-induced writhes; test: Writhing test (acetic acid); type: in vivo, ICR mice; conditions: Mus musculus, po, 0.5 h, read-out: Writh test: ED50 mg/kg
Experimental: To examine the pain relief effect of the sulfamate derivative compounds, a writhing test was referring to Fischer, L. G. et al. (2008).
ICR mice (male, 24-28 g; Orient Bio, Korea) were habituated before test in test room for 1 hour. Animals were fasted for 2 hr before administration of compounds. […] All compounds were dissolved in a vehicle of 30% (v/v) PEG 400 or 20% (v/v) Tween 80. The control group was treated with the vehicle without compounds.
[…] Animals were habituated in the cage for 5 min. 5 min after habituation, the number of writhes (abdominal constriction) was counted for 15 minutes referring to Korzeniewska-Rybicka, I. et al. (1998) and compared with that of the control.

CFA-induced pain model = test: Antiallodynic activity on Complete Freund's Adjuvant (CFA)-induced inflammatory pain model (von Frey); type: in vivo, Sprague-Dawley rats; conditions: Rattus norvegicus, ip
Experimental: Male, Sprague-Dawley rats (200-220 g, Nara Bio, Korea) were habituated for 1 week before surgery and allowed free access to food and water throughout the experimentation. Room temperature and humidity were maintained at 24±2° C. and 50±10%, respectively.
CFA-induced inflammatory pain was induced by the procedure of Nagakura et al. (2003) and Gregory P. et al. (2010) with minor modifications. CFA (sigma, USA) was injected into the left plantar with a 100 ul volume under gaseous anesthesia with isoflurane and NO2 with a 4:4 flow ratio. Sham controls were injected with 100 ul of saline and preparation of the vehicle controls were identical to the group treated with compound, except for administration of vehicles without compound in the vehicle control group.
Tactile sensitivity (mechanical allodynia) was evaluated using von Frey monofilaments before and after treatment, and the animals were included in the study only if the withdrawal threshold value was less than 4 g. One week after surgery, CFA-infused animals (n=4˜6), sham-operated animals (n=12), and vehicle-operated animals (n=17) were tested for tactile sensitivity with von Frey monofilaments, with 3 trials for each animal. All animals were placed in a stainless steel mesh chamber and habituated for 30 min in the test cage. The tactile sensitivity for the ipsilateral hind paw was measured using the up-and-down method (Dixon, 1980) with seven von Frey monofilaments (0.4, 1, 2, 4, 6, 8, and 15 g) in 3 trials. The tactile sensitivity test was followed by Dixon's method (Dixon, 1980). The 50% paw withdrawal threshold for each paw was calculated using the following formula: [Xth] log=[vFr] log+ky where [vFr] is the force of the last von Frey used, k=0.2249 which is the average interval (in log units) between the von Frey monofilaments, and y is a value that depends upon the pattern of the withdrawal responses (Dixon, 1980).
The antiallodynic effect of the compound of Example was evaluated at the doses of 10, 30 and 60 mg/kg (n=4˜6), and were intraperitoneally administered in a volume of 5 ul/g by bodyweight in a vehicle of 30% (v/v) PEG. […]
The relative values compared to the sham (% control) were calculated and are shown in Table 4, which show an antiallodynic effect of the compound of examples in the CFA-induced pain model in rats.

[2] = test system: Vincristine-induced pain model; test: Antiallodynic activity in the vincristine-induced pain model (von Frey); type: in vivo, Sprague-Dawley rats; conditions: rat, intraperitoneal
Experimental: Male, Sprague-Dawley rats (300-320 g, Nara Bio, Korea) were habituated for 1 week before surgery and allowed free access to food and water throughout the experimentation. Room temperature and humidity were maintained at 24±2° C. and 50±10%, respectively.
The vincristine-induced pain model was established by the procedure of Natsuko et al. (2001) with minor modifications. Vincristine was intravenously infused continuously for 14 days using a mini-osmotic pump as follows: Vincristine sulfate solution (Hospira, Australia) was diluted with 0.9% saline to a final dose of 30 ug/kg. The pumps (Alzet Model 2002, USA) were filled with the vincristine solution and primed by incubation at 37° C. for 4 h before the infusion. Briefly, animals were put under gaseous anesthesia with isoflurane and NO with a 4:4 flow ratio. A catheter made from PE-60 tubing was inserted into an external jugular vein in the rat. Sham controls were prepared in the same manner, with the external jugular vein exposed, but not cut down. Preparation of the vehicle controls were identical to the group treated with compound, except for administration of vehicles without compound in the vehicle control group.
Tactile sensitivity (mechanical allodynia) was evaluated using von Frey monofilaments before and after treatment, and the animals were included in the study only if the withdrawal threshold value was less than 4 g. One week after surgery, vincristine-infused animals (n=6), sham-operated animals (n=12) and vehicle-operated (n=18) animals were tested for tactile sensitivity with von Frey monofilaments with 3 trials in each animal. All animals were placed in a stainless steel mesh chamber and habituated for 30 min in the test cage. The tactile sensitivity for the ipsilateral hind paw was measured using the up-and-down method (Dixon, 1980) with seven von Frey monofilaments (0.4, 1, 2, 4, 6, 8, and 15 g) in 3 trials. The tactile sensitivity test was followed by Dixon's method. The 50% paw withdrawal threshold for each paw was calculated using the following formula: [Xth] log=[vFr] log+ky where [vFr] is the force of the last von Frey used, k=0.2249 which is the average interval (in log units) between the von Frey monofilaments, and y is a value that depends upon the pattern of withdrawal responses (Dixon, 1980).
[…] The test was performed at the peak time of efficacy (0.5 hr) after compound administration.
The relative values compared to the sham (% control) were calculated and are shown in Table 11, which show an antiallodynic effect of the compound of examples in the vincristine-induced pain model in rats.

[3] = test system: Post operation-induced pain model; test: Antiallodynic activity on post operative pain-induced pain model (von Frey); type: in vivo, Sprague-Dawley rats; conditions: Rattus norvegicus, ip, 0.5 h, read-out: Post Operation: ED50 mg/kg
Experimental: Male Sprague-Dawley rats (Orient Bio, Korea), 300-320 g, total of 201 rats were used (details in Table 7). Rats were habituated at least 3 days before surgery and free access to food and water (room temperature and humidity were maintained at […] and 50±10%, respectively). The process of performing the post-operation model's surgery was adapted from Brennan et al (1996). At first, rats with allodynia (threshold valueless than 8 g) were excluded in Pre-von Frey Test. During the post-operation surgery, rats were anesthetized under gaseous anesthesia with 2% isoflurane. Rats were laid face down on a plate fixed at 37° C. to prevent against hypothermia. The ipsilateral plantar aspect (left side) of the hind paw was prepared in a sterile manner with a 10% povidone-iodine solution. A longitudinal incision (1 cm) (FIG. 2-A) was made with a blade (number 11) through the skin and fascia of the ipsilateral plantar aspect of the foot, starting from 0.5 cm below the proximal edge of the heel and extending toward the toes. Rats' plantar muscles were elevated and incised longitudinally (FIG. 2-B). After hemostasis with gentle pressure, the skin was opposed with 2 mattress sutures (4-0 Dafilon) (FIG. 2-C). The wound site was covered with a 10% povidone-iodine solution gauze and injected with antibiotics (gentamicin, 8 mg/kg, ip). The sutures were removed under halothane anesthesia approximately 30 hours later, at the end of post-operative day 1.
After 2-3 days of recovery, rats with a good response (threshold less than 4 g) in Pre-von Frey Test were selected. According to this response, we made three groups with each group having equal average responses: Group 1, post-operation and drug treated; Group 2, post-operation and vehicle treated; Group 3, no post-operation and vehicle treated. In this study, Group 3 was the sham control (positive) group. The group 2 was used to check for possible failures to generate post-operative pain.
For efficacy measure, the threshold value of group C was assigned 100% efficacy, and the percentage of the threshold values of group A compared to group C (for each different dose level) were calculated as the efficacies. Base on these efficacy values, ED50 was calculated using log fitting. If there was no clear ED50, then we marked the percent efficacy at the highest tested dose or larger than highest tested dose.
For pain threshold test, all animals were placed in a stainless steel meshed chamber and habituated for 30 min in the test box. The tactile sensitivity of the ipsilateral hind paw was measured using the up-and-down method (Dixon, 1980) with seven von Frey monofilaments (0.4, 1, 2, 4, 6, 8, and 15 g) using 3 trials. The 50% paw withdrawal threshold for each paw was calculated using the following formula: [Xth] log=[vFr] log+ky, where [vFr] is the force of the last von Frey filament used, k=0.2249 which is the average interval (in log units) between the von Frey monofilaments, y which is a value that depends upon the pattern of withdrawal responses, and Xth which is the threshold value (Dixon, 1980).
Drugs were dissolved 30% PEG400 for example 60, 0.9% saline for Pregabalin, 20% Tween80 for Tylenol, 0.9% saline for Topiramate. These vehicles were selected depending on the compound's solubility. Intraperitoneal injection (5 μl/g) was done for all drugs.
The relative values compared to the sham (% control) were calculated and shown in Table 8, which show an antiallodynic effect of the compound of examples on Post operation-induced pain model in rats.

SNL model = test: Antiallodynic activity in the Chung model (SNL, Spinal Nerve Ligation; von Frey); type: in vivo, Sprague-Dawley rats; conditions: Rattus norvegicus, po, 0.5 h, read-out: SNL model: effect (%) compared to control, rat, oral, 3.5 mg/kg administered, 0.5 h
Experimental: Male Sprague-Dawley rats (200-220 g, Orient Bio, Korea) were habituated for 1 week before the experiment and allowed free access to food and water throughout the experimentation. Room temperature and humidity were maintained at 24±2° C. and 50±10%, respectively. The neuropathic surgery (SNL, Spinal Nerve Ligation) model was done as described in Kim and Chung (1992). Briefly, an animal was put under gaseous anesthesia with isoflurane and NO2 with a 4:4 flow ratio. The left lumbar spinal nerves L5 and L6 were isolated and tightly ligated with 4-0 silk thread. The wound was treated with a gentamicin antibiotic solution (4 mg/kg, 4 ul/g by bodyweight), and the wound muscle was closed with Catgut® chrome 4/0 thread and the skin was closed with Dafilon 4/0 thread. Sham controls were prepared in the same manner with the spinal nerves were exposed, but no ligated L5 and L6 nerves. Preparation of the vehicle controls were identical to the group treated with compound, except for administration of vehicles without compound in the vehicle control group.
Tactile sensitivity (mechanical allodynia) was evaluated using von Frey monofilaments before and after treatment and animals the animals were included in the study only if the withdrawal threshold value was less than 4 g. One week after surgery, SNL-operated animals (n=4˜6), sham-operated animals (n=4˜10) and vehicle-operated animals (n=4˜13) were tested for tactile sensitivity with von Frey monofilaments with 3 trials in each animal. All animals were placed in a stainless steel mesh chamber and habituated for 30 min in the test cage. The tactile sensitivity for ipsilateral hind paw was measured using the up-and-down method (Dixon, 1980) with seven von Frey monofilaments (0.4, 1, 2, 4, 6, 8, and 15 g) in 3 trials. The tactile sensitivity test was followed by Dixon's method (Dixon, 1980). The 50% paw withdrawal threshold for each paw was calculated using the following formula: [Xth] log=[vFr] log+ky where [vFr] is the force of the last von Frey used, k=0.2249 which is the average interval (in log units) between the von Frey monofilaments, and y is a value that depends upon the pattern of withdrawal responses (Dixon, 1980).
All animals were fasted for 18 h before the administration of the compounds. The antiallodynic effect of the compounds were evaluated at the various doses (n=5˜6), orally administered in a volume of 5 ul/g by bodyweight in a vehicle of 30% (v/v) PEG 400 (Example 7) or 20% (v/v) Tween 80 (Examples 5 and 6) or saline. […]
The relative values compared to the sham group (% control) were calculated and are shown in Table 5, which show an antiallodynic effect of the test compounds in the SNL model in rats.

Compound	ED50 [1]	ED50 (CFA-induced pain model; 0.5 h, read-out: CFA model: ED50 mg/kg)	ED50 ([2]; ip, 0.5 h)	ED50 [3]	response vs control in vivo at 25 mg/kg (CFA-induced pain model; read-out: CFA model: effect (%) compared to control)	Vincristine model: effect (%) compared to control ([2]; 2.4 mg/kg administered, time not given)	response vs control in vivo at 3.5 mg/kg (SNL model)
CC1(C)Oc2ccccc2[C@@H](COS([NH-])(=O)=O)O1.[Na+] [Example 59, Sodium (S)-(((2,2-dimethyl-4H-benzo[d][1,3]dioxin-4-yl)methoxy)sulfonyl)amide Trihydrate]	81.4 mg/kg	20.2 mg/kg	2.6 mg/kg	10.9 mg/kg	–	–	–
CC1(C)Oc2ccccc2[C@@H](COS([NH-])(=O)=O)O1.[K+] [Example 71, Potassium (S)-(((2,2-dimethyl-4H-benzo[d][1,3]dioxin-4-yl)methoxy)sulfonyl)amide]	–	–	–	–	24.7%	(96.2%)	15.9%
